Laboratory results as given in patent publication US9649319B2, “Process for manufacturing sterile brinzolamide ophthalmic suspension” (INDOCO REMEDIES LIMITED, priority 2012, dated 2017).

Assay: Related Substance data of Brinzolamide after sterilization (Gamma irradiation vs Dry heat sterilization)
Format: physicochemical
Settings: for Impurities: Any individual impurity / Impurities: Related Compound B / Impurities: Related Compound C / Impurities: Related Compound D: Limit NMT 0.3%; for Impurities: Total: Limit NMT 1.0%
Method: The active pharmaceutical ingredient according to the present invention after Dry Heat Sterilization will essentially contain the same physico-chemical properties, its chemical purity and physical form as the starting material from which it is prepared. The degradation, especially chemical degradation caused by the present sterilization process is negligible. A table of comparison for Related Substance data of Brinzolamide after sterilization by Gamma irradiation and Dry heat sterilization is presented below.

[1] = after Gamma irradiation sterilization

CCN[C@H]1CN(CCCOC)S(=O)(=O)c2sc(S(N)(=O)=O)cc21 [Brinzolamide, R 4-ethylamino-3,4-dihydro-2-(3-methoxy)propyl-2H-thieno[3,2-e]-1,2-thiazin-6-sulfonamide 1,1 dioxide]
Impurities: Any individual impurity (after Dry Heat Sterilization): 0.09%
Impurities: Related Compound B (after Dry Heat Sterilization): 0.01%
Impurities: Related Compound C (after Dry Heat Sterilization): 0.06%
Impurities: Related Compound D (after Dry Heat Sterilization): 0.01%
Impurities: Total (after Dry Heat Sterilization): 0.43%
Impurities: Any individual impurity [1]: 0.73%
Impurities: Related Compound B [1]: 0.4%
Impurities: Related Compound C [1]: 0.06%
Impurities: Related Compound D [1]: 0.01%
Impurities: Total [1]: 1.98%
